Source: patent US7329726B2, “Physiologically active peptides” (Seiren Kabushiki Kaisha, priority 2004, dated 2008)
Like-named read-outs stand apart in the source and are kept apart here. Peptide text beside a SMILES is read from it.

B1: Peptide B: peptide having the amino acid sequence of SEQ ID NO: 3, 2 repeats of the 38 amino acid sequence contained in natural sericin (WO 02/086133) (protein)
chain: SSTGSSSNTDSNSNSAGSSTSGGSSTYGYSSNSRDGSVSSTGSSSNTDSNSNSAGSSTSGGSSTYGYSSNSRDGSV
modifications: Peptide derived from sericin

Key:
[1] = tested on: insect cell Sf9; assay type: cell-based; details: Sf9 cells; for Survival rate (%) Average ± Standard deviation (n = 4): Sf900IISFM medium without FCS, 5 days at 27.5° C.
Experimental: Cell death-preventing activity of the peptide according to the present invention was evaluated using an insect cell Sf9 (Invitrogen).
The Sf9 cell is usually subcultured using an Sf900IISFM medium (Invistrogen) containing 10% FCS (fetal calf serum) (Sigma) at a temperature of 27.5° C. It is known that marked cell death occurs when the Sf9 cells thus cultured are abruptly transferred into a medium without FCS and thus exposed to drastic serum-deprived conditions. In this test, cells to be tested were exposed under such drastic serum-deprived conditions and their survival rate was measured to evaluate cell death-preventing effect of the peptide according to the present invention.
First, Sf9 cells subcultured using a medium supplemented with 10% FCS were centrifuged at 1000 rpm at 4° C. for 5 minutes. Next, the supernatant was removed and the precipitated cells were suspended in an Sf900IISFM medium without FCS. The suspension was recentrifuged at 1000 rpm at 4° C. for 5 minutes to wash the cells.
Next, in order to expose the cells under drastic serum-deprived conditions, the washed cells were resuspended in an Sf900IISFM medium without FCS and a cell suspension having a cell density of 5×10^5 cells/ml was prepared.
On the other hand, peptide A (the present invention) was dissolved in an Sf900IISFM medium without FCS and peptide solutions were prepared at peptide concentrations of 0.2 mg/ml, 0.6 mg/ml, and 2.0 mg/ml. The peptide solutions thus prepared were sterilized by filtration.
Next, 50 μl of the abovementioned cell suspension and 50 μl each of the abovementioned peptide solutions were dispensed on a 96-well cell culture plate at a final cell density of 2.5×10^5 cells/ml and final peptide concentrations of 0.1 mg/ml, 0.3 mg/ml, and 1.0 mg/ml, respectively. This culture plate was incubated at 27.5° C. for 5 days.
After 5 days of incubation, cells were stained with Trypan blue and the number of dead cells and the number of viable cells were counted to obtain the survival rate. Here the survival rate means the ratio of the viable cell count to the total cell count upon cell counting.
As a comparative example, an experiment was carried out in the same manner as described above for peptide A, except that peptide B was used in place of peptide A (the present invention), to obtain the survival rate.
As another comparative example, an experiment was carried out in the same manner as described above for peptide A, except that a bovine serum albumin (Sigma) solution was used in place of the abovementioned peptide solutions, to obtain the survival rate.

[2] = tested on: insect cell Sf9; assay: Evaluation Test 2: Cell growth-promoting activity (MTT assay under serum-deprived conditions); assay type: cell-based; details: Sf9 cells; for OD 595 nm Average ± Standard deviation (n = 4): medium without FCS, 9 days at 27.5° C.
Experimental: Cell growth-promoting activity of the peptide according to the present invention was evaluated using an insect cell Sf9 (Invitrogen).
It is known that marked cell death as shown in Evaluation Test 1 and thereafter a decrease in cell growth occur when the Sf9 cells are exposed to drastic serum-deprived conditions. In this test, the cells to be tested were exposed under such drastic serum-deprived conditions and their growth ability was measured to evaluate cell growth-promoting effect of the peptide according to the present invention.
A cell suspension was prepared in the same manner as in Evaluation test 1, and peptide solutions were prepared using peptide A (the present invention) as in Evaluation test 1. Next, 50 μl of this cell suspension and 50 μl each of the peptide solutions were dispensed on a 96-well cell culture plate in the same manner as in Evaluation test 1, and this culture plate was incubated at 27.5° C. for 9 days.
After 9 days of incubation, cell growth-promoting effect was evaluated by the MTT assay.
Specifically, to each well of the 96-well plate incubated for 9 days was added 5 μl of 5 mg/ml 3-(4,5-dimethyl-2-thiazolyl)-2,5-diphenyl tetrazolium bromide (MTT) in phosphate-buffered physiological saline, and the plate was incubated at 27.5° C. for further 5 hours. During this culture process, MTT is transformed into insoluble formazan in viable cells. After 5 hours of incubation, cell culture supernatant was completely removed and then 200 μl each of a 10 mM […] solution with 10% SDS was added to each well to completely dissolve the cells and formazan in the cells. Next, the absorption coefficient at 595 nm was measured for each well using a microplate reader.
As a comparative example, an experiment was carried out in the same manner as the one with the abovementioned peptide A, except that peptide B was used in place of peptide A (the present invention), and then the absorption coefficient at 595 nm was measured for each well.
As another comparative example, an experiment was carried out in the same manner as described above for peptide A, except that a bovine serum albumin (Sigma) solution was used in place of the abovementioned peptide solutions, and then the absorption coefficient at 595 nm was measured for each well.
Here the value of the absorption coefficient in the NTT assay increases with an increase in viable cell density.

[3] = sample concentration 1.0 mg/ml, listed as peptide A

| Molecule | Survival rate (%) Average ± Standard deviation (n = 4) ([1]; sample concentration 0.3 mg/ml) [%] | OD 595 nm Average ± Standard deviation (n = 4) ([2]; sample concentration 0.3 mg/ml) | Survival rate (%) Average ± Standard deviation (n = 4) ([1]; sample concentration 0.1 mg/ml) [%] | Survival rate (%) Average ± Standard deviation (n = 4) ([1]; sample concentration 1.0 mg/ml) [%] | Survival rate (%) Average ± Standard deviation (n = 4) [1, 3] | survival rate compared with peptide B (comparative example) ([1]; serum-deprived, 5 days) | OD 595 nm Average ± Standard deviation (n = 4) ([2]; sample concentration 0.1 mg/ml) | OD 595 nm Average ± Standard deviation (n = 4) ([2]; sample concentration 1.0 mg/ml) | OD 595 nm Average ± Standard deviation (n = 4) [2, 3] | cell growth-promoting activity compared with peptide B (comparative example) ([2]; serum-deprived, 9 days) |
| --- | --- | --- | --- | --- | --- | --- | --- | --- | --- | --- |
| bovine serum albumin [reference compound] | 62.5 ± 3.0 | 0.90 ± 0.03 |  |  |  |  |  |  |  |  |
| C[C@@H](O)[C@H](NC(=O)[C@H](CO)NC(=O)[C@H](CO)NC(=O)CNC(=O)CNC(=O)[C@@H](N)CO)C(=O)N[C@@H](Cc1ccc(O)cc1)C(=O)NCC(=O)N[C@@H](Cc1ccc(O)cc1)C(=O)N[C@@H](CO)C(=O)O [Peptide A] (H-SGGSSTYGYS-OH; N-terminus assumed) | 47.3 ± 2.9 | 0.80 ± 0.02 | 28.5 ± 3.4 | 58.0 ± 3.2 | about 60% | higher than that with peptide B | 0.48 ± 0.01 | 0.92 ± 0.02 | about 0.9 | higher than that with peptide B |
| B1 | 46.1 ± 2.2 | 0.72 ± 0.03 |  |  |  |  |  |  |  |  |
